Measured values published in patent US12172975B2, “1H-indazole carboxamides as receptor-interacting protein kinase 1 inhibitors (RIPK1)” (BRISTOL-MYERS SQUIBB COMPANY, priority 2018, dated 2024).
Counter-ions that a name gives are not always drawn. Like-named read-outs stand apart in the source and are kept apart here.

Legend:
[1] = target: T1, His-GST-TVMV-hRIPK1 (1-324) (Homo sapiens (Human), UniProt Q13546); assay: biochemical
Protocol: (§1) A solution was prepared containing 0.2 nM Anti GST-Tb (Cisbio, 61GSTTLB), 90.6 nM probe and 1 nM His-GST-TVMV-hRIPK1 (1-324) in FRET Buffer (20 mM HEPES, 10 mM MgCl2, 0.015% Brij-35, 4 mM DTT, 0.05 mg/mL BSA). Using Formulatrix Tempest, the detection antibody/enzyme/probe solution (2 mL) was dispensed into wells of a 1536 plate (Black Low Binding Polystyrene 1536 Plate (Corning, 3724)) containing 10 nL of compounds of interest at appropriate concentration in DMSO. The plate was incubated at rt for 1 h. FRET was measured using the EnVision plate reader (Excitation: 340 nm, Emission: 520 nm/495 nM). Total signal (0% inhibition) was calculated from wells containing 10 nL DMSO only.

[2] = test system: MLKL phosphorylation in HT29-L23 human colorectal adenocarcinoma cells; assay: MLKL Phosphorylation High-Content Assay; format: cell-based; settings: 6 h, necroptosis induced with TNFα, SMAC mimetic and Z-VAD, read-out: pMLKL (IC50)
In short: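 HT29-L23 cells were induced to necroptosis with TNFα (35 ng/mL), SMAC mimetic (700 nM) and Z-VAD (140 nM) for 6 h at 37 °C. Phospho-MLKL (S358) immunofluorescence was imaged and quantified per cell; maximal inhibition set by Nec-1s (6.25 μM), and IC50/Ymax from 4-parameter logistic fit.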

[3] = target: T1, His-GST-TVMV-hRIPK1 (1-324); assay: RIPK1 HTRF Binding Assay; settings: read-out: RIPK1 HTRF (IC50); FRET probe displacement, 1 h at rt
Protocol: as §1

T1 sequence (Q13546 1-324): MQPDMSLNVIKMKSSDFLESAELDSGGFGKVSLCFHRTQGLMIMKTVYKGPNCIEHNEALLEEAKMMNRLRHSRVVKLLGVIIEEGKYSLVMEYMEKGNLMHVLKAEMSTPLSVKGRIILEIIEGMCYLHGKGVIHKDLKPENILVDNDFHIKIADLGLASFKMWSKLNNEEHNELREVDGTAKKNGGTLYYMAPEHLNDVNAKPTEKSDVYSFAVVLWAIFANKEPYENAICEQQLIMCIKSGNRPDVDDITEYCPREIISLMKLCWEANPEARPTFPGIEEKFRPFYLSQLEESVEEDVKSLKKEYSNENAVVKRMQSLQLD

| Compound | IC50 [1] [nM] | IC50 ([2]; Homo sapiens) [nM] | IC50 [2] [nM] | IC50 [3] [nM] |
| --- | --- | --- | --- | --- |
| CNC(=O)c1n[nH]c2cc(-c3cnc(OC)c(C(=O)NC(C)c4ccccc4OC(F)(F)F)c3)cc(F)c12 (racemic) [Example 24, 4-fluoro-6-[6-methoxy-5-({1-[2-(trifluoromethoxy)phenyl]ethyl}carbamoyl)pyridin-3-yl]-N-methyl-1H-indazole-3-carboxamide] | 5.4 | 11 |  |  |
| [2H]C([2H])([2H])Oc1ncc(-c2ccc3c(C(=O)NC([2H])([2H])C([2H])([2H])[2H])n[nH]c3c2)cc1C(=O)N[C@@H](C)c1cc(OC(F)(F)F)ccc1F [Example 224, N-[(1,1,2,2,2-deutero)ethyl]-6-(5-{[(1S)-1-[2-fluoro-5-(trifluorometh-oxy)phenyl]ethyl]carbamoyl}-6-(deutero)methoxypyridin-3-yl)-1H-indazole-3-carboxamide] | 17 | 12 |  |  |
| CNC(=O)c1n[nH]c2cc(-c3cnc(OC)c(C(=O)NC4CCCC(c5ccccc5)C4)c3)ccc12 (single isomer, unassigned) [Example 21-1, 6-{6-methoxy-5-[(3-phenylcyclohexyl)carbamoyl]pyridin-3-yl}-N-methyl-1H-indazole-3-carboxamide] | 3.5 |  | 8.3 |  |
| CNC(=O)c1n[nH]c2cc(-c3cnc(OC)c(C(=O)NC(C)c4cccc(C(F)(F)F)c4)c3)ccc12 (stereo not drawn) [Example 101, 6-[6-methoxy-5-({1-[3-(tri-fluoromethyl)phenyl]ethyl}-carbamoyl)pyridin-3-yl]-N-methyl-1H-indazole-3-carbox-amide] |  |  | 19 | 4.5 |
| [2H]C([2H])([2H])Oc1ncc(-c2ccc3c(C(=O)NC([2H])([2H])C([2H])([2H])[2H])n[nH]c3c2)cc1C(=O)NC(C)c1cc(F)ccc1C(F)(F)F (stereo not drawn) [Example 228, N-[(1,1,2,2,2-deutero)ethyl]-6-[5-({1-[5-fluoro-2-(trifluoromethyl)-phenyl]ethyl}carbamoyl)-6-(deutero)methoxypyridin-3-yl]-1H-indazole-3-carboxamide] |  | 51 |  | 58 |
| COc1ncc(-c2ccc3c(C(=O)NC4CCC(O)CC4)n[nH]c3c2)cc1C(=O)NCc1ccccc1OC(F)(F)F (stereo not drawn) [Example 189, 6-[6-methoxy-5-({[2-(trifluoro-methoxy)phenyl]methyl}-carbamoyl)pyridin-3-yl]-N-[(1r,4r)-4-hydroxycyclohexyl]-1H-indazole-3-carboxamide] |  | 30 |  | 9.6 |
| [2H]C([2H])([2H])Oc1ncc(-c2ccc3c(C(=O)NC4CC4)n[nH]c3c2)cc1C(=O)N[C@H](C)c1cc(OC(F)(F)F)ccc1F [Example 201, N-cyclopropyl-6-(5-{[(1R)-1-[2-fluoro-5-(trifluoromethoxy)-phenyl]ethyl]carbamoyl}-6-(deutero)methoxypyridin-3-yl)-1H-indazole-3-carboxamide] |  | 110 |  | 11 |
| CNC(=O)c1n[nH]c2cc(-c3cnc(OC)c(C(=O)NC4CCCC(Oc5ccccc5)C4)c3)ccc12 (stereo not drawn) [Example 118, 6-{6-methoxy-5-[(3-phenoxy-cyclohexyl)carbamoyl]pyridin-3-yl}-N-methyl-1H-indazole-3-carboxamide] |  | 2.6 |  | 6.2 |
| CNC(=O)c1n[nH]c2cc(-c3cnc(OC)c(C(=O)NCC(O)COc4ccccc4)c3)ccc12 (stereo not drawn) [Example 56, 6-{5-[(2-hydroxy-3-phenoxy-propyl)carbamoyl]-6-meth-oxypyridin-3-yl}-N-methyl-1H-indazole-3-carboxamide] |  | 26 |  | 8.4 |
| CCNC(=O)c1n[nH]c2cc(-c3cnc(OC)c(C(=O)NCc4ccccc4OC(F)(F)F)c3)ccc12 [Example 170, N-ethyl-6-[6-methoxy-5-({[2-(trifluoromethoxy)phenyl]-methyl}carbamoyl)pyridin-3-yl]-1H-indazole-3-carboxamide] |  | 23 |  | 7.9 |
| CNC(=O)c1n[nH]c2cc(-c3cnc(OC)c(C(=O)NCC4(C(=O)OC5CCCC5)CC4)c3)ccc12 [Example 140, cyclopentyl 1-[({2-methoxy-5-[3-(methylcarbamoyl)-1H-indazol-6-yl]pyridin-3-yl}-formamido)methyl]cyclopro-pane-1-carboxylate] |  |  | 18 | 6.9 |
| [2H]C([2H])([2H])Oc1ncc(-c2ccc3c(C(=O)NCC(C)(C)F)n[nH]c3c2)cc1C(=O)N[C@@H]1CN(C(=O)C2CC(F)(F)C2)C[C@@H]1F [Example 193, 6-(5-{[(3R,4S)-1-(3,3-difluorocyclo-butanecarbonyl)-4-fluoropyrrolidin-3-yl]carbamoyl}-6-(deutero)methoxy-pyridin-3-yl)-N-(2-fluoro-2-methyl-propyl)-1H-indazole-3-carboxamide] |  | 480 |  | 260 |
| [2H]C([2H])([2H])Oc1ncc(-c2ccc3c(C(=O)NC4CC4)n[nH]c3c2)cc1C(=O)N[C@H](C)c1ccccc1OC(F)(F)F [Example 13, (R)—N-cyclopropyl-6-(6-methoxyd3-5-((1-(2-(trifluoromethoxy)phenyl)ethyl)carbamoyl)pyridin-3-yl)-1H-indazole-3-carboxamide] |  | 5.1 |  | 5.5 |
| CNC(=O)c1n[nH]c2cc(-c3cnc(OC)c(C(=O)NCc4cc(F)ccc4OC(C)C)c3)ccc12 [Example 130, 6-[5-({[5-fluoro-2-(propan-2-yloxy)phenyl]methyl}carbam-oyl)-6-methoxy-pyridin-3-yl]-N-methyl-1H-indazole-3-carboxamide] |  |  | 3.9 | 1.9 |
| [2H]C([2H])([2H])Oc1ncc(-c2ccc3c(C(=O)NC4CC(F)(F)C4)n[nH]c3c2)cc1C(=O)N[C@@H]1CN(C(=O)C2CC(F)(F)C2)C[C@@H]1F [Example 191, 6-(5-{[(3R,4S)-1-(3,3-difluorocyclo-butanecarbonyl)-4-fluoropyrrolidin-3-yl]carbamoyl}-6-(deutero)methoxy-pyridin-3-yl)-N-(3,3-difluorocyclo-butyl)-1H-indazole-3-carboxamide] |  | 89 |  | 120 |
| CNC(=O)c1n[nH]c2cc(-c3cnc(OC)c(C(=O)NCc4ccccc4OC4CCC(C)C4)c3)ccc12 (stereo not drawn) [Example 131, 6-{6-methoxy-5-[({2-[(3-methylcyclopentyl)oxy]-phenyl}methyl)carbamoyl]-pyridin-3-yl}-N-methyl-1H-indazole-3-carboxamide] |  | 2.3 |  | 10 |
| [2H]C([2H])([2H])Oc1ncc(-c2ccc3c(C(=O)NC4CC4)n[nH]c3c2)cc1C(=O)NC1CCCC(C(=O)N2CCCC2)C1 (stereo not drawn) [Example 204] |  | 84 |  | 12 |
| [2H]C([2H])([2H])Oc1ncc(-c2ccc3c(C(=O)NC4CC4)n[nH]c3c2)cc1C(=O)N[C@H](C)c1cccc(OC(F)(F)F)c1 [Example 202, N-cyclopropyl-6-[6-(deutero)-methoxy-5-{[(1R)-1-[3-(trifluoro-methoxy)phenyl]ethyl]carbam-oyl}pyridin-3-yl]-1H-indazole-3-carboxamide] |  | 53 |  | 36 |
| COc1ncc(-c2ccc3c(C(=O)NC4CC(=O)N(C(C)C)C4)n[nH]c3c2)cc1C(=O)NCc1ccccc1OC(F)(F)F (stereo not drawn) [Example 181, 6-[6-methoxy-5-({[2-(trifluoro-methoxy)phenyl]methyl}carbam-oyl)pyridin-3-yl]-N-[5-oxo-1-(propan-2-yl)pyrrolidin-3-yl]-1H-indazole-3-carboxamide, TFA] |  | 82 |  | 27 |
| CNC(=O)c1n[nH]c2cc(-c3cnc(OC)c(C(=O)NCc4ccccc4NC(=O)OC(C)(C)C)c3)ccc12 [Example 73, tert-butyl-N-{2-[({2-methoxy-5-[3-(methylcarbamoyl)-1H-indazol-6-yl]pyridin-3-yl}-formamido)methyl]phenyl}-carbamate] |  | 120 |  | 4.7 |
| COc1ncc(-c2ccc3c(C(=O)NCCCN4CCCC4=O)n[nH]c3c2)cc1C(=O)NCc1ccccc1OC(F)(F)F [Example 177, 6-[6-methoxy-5-({[2-(trifluoro-methoxy)phenyl]methyl}-carbamoyl)pyridin-3-yl]-N-[3-(2-oxopyrrolidin-1-yl)propyl]-1H-indazole-3-carboxamide] |  | 15 |  | 2.9 |
| [2H]C([2H])([2H])NC(=O)c1n[nH]c2cc(-c3cnc(OC([2H])([2H])[2H])c(C(=O)N[C@H](C)c4ccccc4OC(F)(F)F)c3)ccc12 [Example 7, (R)-6-(6-(methoxy-d3)-5-((1-(2-(trifluoromethoxy)phenyl)ethyl)carbamoyl)pyridin-3-yl)-N-(methyl-d3)-1H-indazole-3-carboxamide] |  | 4.6 |  | 8.5 |
| CNC(=O)c1n[nH]c2cc(-c3cc(C(=O)NC(C)c4cccc(OC(F)(F)F)c4)c(C)nc3C)ccc12 (single isomer, unassigned) [Example 164, 6-[2,6-dimethyl-5-({1-[3-(trifluoromethoxy)phenyl]-ethyl}carbamoyl)pyridin-3-yl]-N-methyl-1H-indazole-3-carboxamide] |  |  | 3.7 | 5.4 |
| CCCCNC(=O)c1n[nH]c2cc(-c3cnc(OC)c(C(=O)NCc4ccccc4OC(F)(F)F)c3)ccc12 [Example 175, N-butyl-6-[6-methoxy-5-({[2-(trifluoromethoxy)phenyl]-methyl}carbamoyl)pyridin-3-yl]-1H-indazole-3-carboxamide] |  | 29 |  | 9.9 |
